Measurements reported in PubChem BioAssay (NCI).
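Grown in 96-well plates, cells were treated for 48 hours with each compound at five concentrations. Insufficient inhibition: endpoint recorded as highest concentration tested. Abbreviation: GI50, concentration required for 50% inhibition of growth. At the TGI there is no net growth.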

Assays:
Assay in all cases: DTP human tumour cell line panel, 48 h
786-0 renal = tested on: 786-0 renal
A498 renal = tested on: A498 renal
A549 NSCLC = tested on: A549 NSCLC
ACHN renal = tested on: ACHN renal
BT-549 breast = tested on: BT-549 breast
CAKI-1 renal = tested on: CAKI-1 renal
CCRF-CEM leukemia = tested on: CCRF-CEM leukemia
COLO 205 colon = tested on: COLO 205 colon
DU-145 prostate = tested on: DU-145 prostate
EKVX NSCLC = tested on: EKVX NSCLC
HCC-2998 colon = tested on: HCC-2998 colon
HCT-116 colon = tested on: HCT-116 colon
HCT-15 colon = tested on: HCT-15 colon
HL-60(TB) leukemia = tested on: HL-60(TB) leukemia
HOP-62 NSCLC = tested on: HOP-62 NSCLC
HOP-92 NSCLC = tested on: HOP-92 NSCLC
HS 578T breast = tested on: HS 578T breast
HT29 colon = tested on: HT29 colon
IGROV1 ovarian = tested on: IGROV1 ovarian
K-562 leukemia = tested on: K-562 leukemia
KM12 colon = tested on: KM12 colon
LOX IMVI melanoma = tested on: LOX IMVI melanoma
M14 melanoma = tested on: M14 melanoma
MALME-3M melanoma = tested on: MALME-3M melanoma
MCF7 breast = tested on: MCF7 breast
MDA-MB-231 breast = tested on: MDA-MB-231 breast
MDA-MB-435 = tested on: MDA-MB-435
MOLT-4 leukemia = tested on: MOLT-4 leukemia
NCI-H226 lung = tested on: NCI-H226 lung
NCI-H23 lung = tested on: NCI-H23 lung
NCI-H522 lung = tested on: NCI-H522 lung
NCI/ADR-RES ovarian = tested on: NCI/ADR-RES ovarian
OVCAR-3 ovarian = tested on: OVCAR-3 ovarian
OVCAR-4 ovarian = tested on: OVCAR-4 ovarian
OVCAR-5 ovarian = tested on: OVCAR-5 ovarian
OVCAR-8 ovarian = tested on: OVCAR-8 ovarian
PC-3 prostate = tested on: PC-3 prostate
RPMI-8226 leukemia = tested on: RPMI-8226 leukemia
SF-268 CNS = tested on: SF-268 CNS
SF-295 CNS = tested on: SF-295 CNS
SF-539 CNS = tested on: SF-539 CNS
SK-MEL-2 melanoma = tested on: SK-MEL-2 melanoma
SK-MEL-28 melanoma = tested on: SK-MEL-28 melanoma
SK-MEL-5 melanoma = tested on: SK-MEL-5 melanoma
SK-OV-3 ovarian = tested on: SK-OV-3 ovarian
SN12C renal = tested on: SN12C renal
SNB-19 CNS = tested on: SNB-19 CNS
SNB-75 CNS = tested on: SNB-75 CNS
T-47D breast = tested on: T-47D breast
TK-10 renal = tested on: TK-10 renal
U251 CNS = tested on: U251 CNS
UACC-257 melanoma = tested on: UACC-257 melanoma
UACC-62 melanoma = tested on: UACC-62 melanoma
UO-31 renal = tested on: UO-31 renal

In the case of `COc1cc2c3c(n(CCCNC4=NCCS4)c(=O)c2cc1OC)-c1cc2c(cc1C3=O)OCO2`, the GI50 (786-0 renal) is reported as < 10 nM, the TGI (786-0 renal) is reported as 37.1 nM and the GI50 (A498 renal) is reported as 1520 nM. The TGI (A498 renal) was 7680 nM, the GI50 (A549 NSCLC) was < 10 nM and the TGI (A549 NSCLC) was 1330 nM. The GI50 (ACHN renal) was < 10 nM, the TGI (ACHN renal) was 135 nM and the GI50 (BT-549 breast) was 1730 nM. For the same molecule, the TGI (BT-549 breast) was 9300 nM, the GI50 (CAKI-1 renal) was < 10 nM and the TGI (CAKI-1 renal) was 749 nM. For the same molecule, the GI50 (CCRF-CEM leukemia) was < 10 nM, the TGI (COLO 205 colon) was 4090 nM and the GI50 (DU-145 prostate) was < 10 nM. For the same molecule, the TGI (DU-145 prostate) was 1310 nM, the GI50 (EKVX NSCLC) was 1790 nM and the TGI (EKVX NSCLC) was 8800 nM. For the same molecule, the GI50 (HCC-2998 colon) was < 10 nM, the GI50 (HCT-116 colon) was < 10 nM and the TGI (HCT-116 colon) was 127 nM. It also gave a GI50 (HCT-15 colon) of 823 nM, a TGI (HCT-15 colon) of 3670 nM and a GI50 (HL-60(TB) leukemia) of 142 nM. For the same molecule, the GI50 (HOP-62 NSCLC) was < 10 nM, the TGI (HOP-92 NSCLC) was 1950 nM and the GI50 (HS 578T breast) was 1400 nM. The TGI (HS 578T breast) was 3850 nM, the GI50 (HT29 colon) was < 34.7 nM and the TGI (HT29 colon) was 756 nM. For the same molecule, the GI50 (IGROV1 ovarian) was 197 nM, the TGI (IGROV1 ovarian) was > 100000 nM and the GI50 (K-562 leukemia) was < 10 nM. For the same molecule, the TGI (K-562 leukemia) was 631 nM, the GI50 (KM12 colon) was 1110 nM and the TGI (KM12 colon) was 3110 nM. For the same molecule, the GI50 (LOX IMVI melanoma) was < 10 nM, the TGI (LOX IMVI melanoma) was 232 nM and the GI50 (M14 melanoma) was < 10 nM. It also gave a TGI (M14 melanoma) of 201 nM, a GI50 (MALME-3M melanoma) of 1440 nM and a TGI (MALME-3M melanoma) of 5410 nM. For the same molecule, the GI50 (MCF7 breast) was < 10 nM, the GI50 (MDA-MB-231 breast) was 465 nM and the TGI (MDA-MB-231 breast) was 1020 nM. For the same molecule, the TGI (MDA-MB-435) was 1830 nM, the GI50 (MOLT-4 leukemia) was < 10 nM and the GI50 (NCI-H226 lung) was 45.6 nM. The TGI (NCI-H226 lung) was 913 nM, the GI50 (NCI-H23 lung) was < 12.3 nM and the TGI (NCI-H23 lung) was 128 nM. For the same molecule, the GI50 (NCI-H522 lung) was 174 nM, the TGI (NCI-H522 lung) was > 56200 nM and the GI50 (NCI/ADR-RES ovarian) was < 18.3 nM. It also gave a TGI (NCI/ADR-RES ovarian) of 319 nM, a GI50 (OVCAR-3 ovarian) of 203 nM and a TGI (OVCAR-3 ovarian) of 2090 nM. It also gave a GI50 (OVCAR-4 ovarian) of 1820 nM, a TGI (OVCAR-4 ovarian) of 6100 nM and a GI50 (OVCAR-5 ovarian) of 668 nM. For the same molecule, the TGI (OVCAR-5 ovarian) was 2080 nM, the TGI (OVCAR-8 ovarian) was 2110 nM and the GI50 (PC-3 prostate) was 722 nM. For the same molecule, the TGI (PC-3 prostate) was 3510 nM, the GI50 (RPMI-8226 leukemia) was < 14.5 nM and the TGI (RPMI-8226 leukemia) was 296 nM. For the same molecule, the GI50 (SF-268 CNS) was 188 nM, the TGI (SF-268 CNS) was 5190 nM and the GI50 (SF-295 CNS) was < 10 nM. For the same molecule, the TGI (SF-295 CNS) was 1420 nM, the GI50 (SF-539 CNS) was < 12.2 nM and the TGI (SF-539 CNS) was 283 nM. The GI50 (SK-MEL-2 melanoma) was 9980 nM, the TGI (SK-MEL-2 melanoma) was > 80600 nM and the GI50 (SK-MEL-28 melanoma) was 1120 nM. For the same molecule, the TGI (SK-MEL-28 melanoma) was 3210 nM, the GI50 (SK-MEL-5 melanoma) was 236 nM and the TGI (SK-MEL-5 melanoma) was 2230 nM. For the same molecule, the TGI (SK-OV-3 ovarian) was 3180 nM, the GI50 (SN12C renal) was < 25.5 nM and the TGI (SN12C renal) was 408 nM. The GI50 (SNB-19 CNS) was 1030 nM, the TGI (SNB-19 CNS) was > 100000 nM and the TGI (SNB-75 CNS) was 1440 nM. It also gave a TGI (T-47D breast) of 2700 nM, a GI50 (TK-10 renal) of 4590 nM and a TGI (TK-10 renal) of 10600 nM. The GI50 (U251 CNS) was < 10 nM, the TGI (U251 CNS) was 197 nM and the GI50 (UACC-257 melanoma) was 1210 nM. The TGI (UACC-257 melanoma) was 5670 nM, the GI50 (UACC-62 melanoma) was 55.9 nM and the TGI (UACC-62 melanoma) was 1660 nM. For the same molecule, the GI50 (UO-31 renal) was 147 nM and the TGI (UO-31 renal) was > 100000 nM.
